Assay results taken from US7405051B2, “Method of screening antiplatelet agents” (Astellas Pharma Inc., priority 2000, dated 2008).

Assays:
[1] = molecular target: T1, HORK3 protein (human ADP receptor P2TAC) (Homo sapiens, UniProt Q9H244); assay: Inhibition of forskolin-stimulated cAMP production in CHO cell expressing HORK3 protein; assay type: cell-based; conditions: CHO-dhfr(-) cells expressing HORK3; 3 μmol/L forskolin; 37° C. 30 minutes; read-out: EC50, responsiveness against the HORK3 protein (decrease of cAMP produced by forskolin)
T1 sequence (Q9H244 whole entry): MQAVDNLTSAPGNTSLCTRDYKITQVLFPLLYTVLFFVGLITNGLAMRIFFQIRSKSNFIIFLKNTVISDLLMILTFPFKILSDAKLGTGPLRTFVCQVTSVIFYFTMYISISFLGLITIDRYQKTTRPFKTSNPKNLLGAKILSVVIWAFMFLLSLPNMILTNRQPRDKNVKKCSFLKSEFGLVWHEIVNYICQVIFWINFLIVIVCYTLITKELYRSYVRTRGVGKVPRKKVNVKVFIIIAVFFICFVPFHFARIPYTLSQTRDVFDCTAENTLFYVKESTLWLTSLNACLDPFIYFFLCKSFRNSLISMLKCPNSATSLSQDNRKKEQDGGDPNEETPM
Source text: It was found from Example 3 that the ADP receptor was a Gi-coupled receptor, and thus it is expected that the ADP receptor has an activity of suppressing the adenylate cyclase activity. […] In this connection, a dihydrofolate reductase (DHFR; an essential enzyme for de novo synthesis of nucleic acids) defective cell line [CHO-dhfr(−) line] was used in the present example. The plasmid pEF-BOS-dhfr-HORK3 was used as an expression plasmid to be used for expressing the HORK3 protein. The CHO-dhfr(−) line was seeded on each 10 cm-petri dish (1×10^6 cells/dish) by using an αMEM (with nucleic acids) medium. […] As a control, a gene transfection was carried out by using the plasmid pEF-BOS-dhfr (i.e., an empty vector without the HORK3 gene), instead of the plasmid pEF-BOS-dhfr-HORK3. After 24 hours from the gene transfection procedure, the transfected cells were taken and suspended in an αMEM (without nucleic acids) medium containing 100 nmol/L methotrexate (a competitive inhibitor of DHFR; manufactured by Wako Pure Chemical Industries). Each suspension was gradually diluted and reseeded on each 10 cm-petri dish. […] The amount of cAMP produced in each cell under each condition was measured by using the cAMP-EIA system in accordance with a protocol attached thereto.

[2] = tested on: CHO cell transfected with the empty vector; assay: Forskolin-stimulated cAMP production in control CHO cell transfected with the empty vector; assay type: cell-based, Chinese hamster; conditions: 3 μmol/L forskolin
Description: The CHO-dhfr(−) line was seeded on each 10 cm-petri dish (1×10^6 cells/dish) by using an αMEM (with nucleic acids) medium. After culturing for 1 day, a gene transfection was carried out by using a transfection reagent (LipofectAMINE 2000; manufactured by GIBCO BRL) and the plasmid pEF-BOS-dhfr-HORK3 (8 μg). As a control, a gene transfection was carried out by using the plasmid pEF-BOS-dhfr (i.e., an empty vector without the HORK3 gene), instead of the plasmid pEF-BOS-dhfr-HORK3.
After 24 hours from the gene transfection procedure, the transfected cells were taken and suspended in an αMEM (without nucleic acids) medium containing 100 nmol/L methotrexate (a competitive inhibitor of DHFR; manufactured by Wako Pure Chemical Industries). Each suspension was gradually diluted and reseeded on each 10 cm-petri dish. Colonies which appeared after 2 weeks were individually taken, and used as a CHO cell expressing the HORK3 protein or a control CHO cell transfected with the empty vector in the following experiment.
The CHO cells expressing the HORK3 protein or the CHO cells transfected with the empty vector were seeded on a 24-well plate (1×10^5 cells/well). […]
The amount of cAMP produced in each cell under each condition was measured by using the cAMP-EIA system in accordance with a protocol attached thereto. […]

[3] = molecular target: T1, HORK3 protein (human ADP receptor P2TAC); assay: Increase in intracellular Ca2+ concentration in C6-15 cell co-expressing HORK3 protein and Gqi (FLIPR); assay type: cell-based; set-up: expressed in transfected cells; host or cells: C6-15 rat glioma cells, transient co-transfection of pEF-BOS-dhfr-HORK3 and pEF-BOS-Gqi; conditions: C6-15 cells transfected with pEF-BOS-dhfr-HORK3 and pEF-BOS-Gqi; peak values, Logistic regression
Description: When most purines such as ADP, 2MeSADP (2-methylthio-ADP), or the like are added to a cell, the increase in intracellular Ca^2+ via an endogenous cellular membrane receptor is observed. […] In the present example, the C6-15 cell was used to express the HORK3 protein.
Further, the plasmid pEF-BOS-dhfr-HORK3 obtained in Example 1 was used as an expression plasmid to be used for expressing the HORK3 protein. […]
(§1) A time course of the change in the intracellular Ca^2+ concentration was measured by using FLIPR (manufactured by Molecular Device). More particularly, after 10 seconds from the beginning of measurement, 2MeSADP or ADP was added to wells to a final concentration of 3×10^−5 mol/L to 1×10^−12 mol/L. After the addition, each fluorescence intensity was measured at an interval of 1 second for 50 seconds, and then at an interval of 6 seconds for 4 minutes.
The change of the intracellular Ca^2+ concentration by 2MeSADP or ADP in the cells to which the plasmid pEF-BOS-dhfr-HORK3 and the plasmid pEF-BOS-Gqi had been transfected was measured, each peak value in various concentrations of 2MeSADP or ADP was plotted, and then the dependency upon the concentration was analyzed by using a Logistic regression method.

[4] = molecular target: T1, HORK3 protein (human ADP receptor P2TAC); assay: Forskolin-stimulated cAMP production in C6-15 cell expressing HORK3 protein (cAMP HTRF); assay type: cell-based; conditions: C6-15 cells expressing HORK3; for EC50: 1 μmol/L forskolin, 37° C. 30 minutes, read-out: EC50, responsiveness against the HORK3 protein (decrease of cAMP produced by forskolin)
Description: The C6-15 cells expressing the HORK3 protein were seeded on a 96-well plate (1×10^4 cells/well). After culturing for 1 day, cells were treated with a DMEM medium containing 1 mmol/L 3-isobutyl-1-methylxanthine (manufactured by Sigma) and 0.1% BSA for 10 minutes, and then the combination of 1 μmol/L forskolin (manufactured by Wako Pure Chemical Industries) and 2MeSADP (a final concentration=1×10^−12 to 1×10^−7 mol/L), or the combination of 1 μmol/L forskolin and ADP (a final concentration=1×10^−10 to 1×10^−5 mol/L) was added dropwise. After incubating at 37° C. for 30 minutes, the culture supernatant was discarded, and then cells were dissolved in PBS containing 0.2% Triton X-100.
The amount of cAMP produced in each cell under each condition was measured by using a cAMP HTRF kit (manufactured by CIS bio international) in accordance with a protocol attached thereto. When the amount of cAMP produced by stimulating with 1 μmol/L forskolin alone was regarded as 100%, a concentration-dependent curve for the amount of cAMP in the presence of 2MeSADP or ADP was drawn.
Next, effects of compounds, which are known to suppress the platelet aggregation, on the suppression of the amount of cAMP produced by the forskolin stimulus in the C6-15 cell expressing the HORK3 protein by 2MeSADP were examined. […] After incubating at 37° C. for 30 minutes, the culture supernatant was discarded, and then cells were dissolved in PBS containing 0.2% Triton X-100. The amount of cAMP produced was measured by using the cAMP HTRF kit in accordance with a protocol attached thereto. When the amount of cAMP produced by stimulating with 1 μmol/L forskolin alone was regarded as 0%, and that by stimulating with the combination of 1 μmol/L forskolin and 10 nmol/L 2MeSADP was regarded as 100%, a concentration-dependent curve of each inhibitor was drawn.

[5] = tested on: C6-15 cells transfected with pEF-BOS-dhfr (empty vector) and pEF-BOS-Gqi; assay: Intracellular Ca2+ concentration in control C6-15 cells transfected with empty vector and Gqi; assay type: cell-based, rat; conditions: empty vector plus Gqi control cells; 3x10^-5 to 1x10^-12 mol/L
Description: The C6-15 cells were seeded on a 96-well plate (96 well Black/clear bottom plate, collagen I coated; manufactured by BECTON DICKINSON) so that the concentration of cells became 2×10^4 cells/well. After culturing for 48 hours, a gene transfection was carried out by using a transfection reagent (LipofectAMINE 2000; manufactured by GIBCO BRL) and the combination of the plasmid pEF-BOS-dhfr-HORK3 (50 ng/well) and the plasmid pEF-BOS-Gqi (50 ng/well). As a control, a gene transfection was carried out by using the combination of the plasmid pEF-BOS-dhfr (i.e., an empty vector without the HORK3 gene) and the plasmid pEF-BOS-Gqi, instead of the combination of the plasmid pEF-BOS-dhfr-HORK3 and the plasmid pEF-BOS-Gqi. […]
as §1, with “minutes. […]” for “minutes.”

[6] = molecular target: T1, HORK3 protein (human ADP receptor P2TAC); assay: [3H]-2MeSADP binding assay on membrane fraction of C6-15 cell expressing HORK3 protein; conditions: 1 nmol/L [3H]-2MeSADP; 20 μg membrane fraction; room temperature 2 hours
Source text: The C6-15 cells expressing the HORK3 protein prepared in Example 5 were taken and washed, and then suspended in 20 mmol/L Tris-HCl (pH7.4) containing 5 mmol/L EDTA and a protease inhibitor cocktail set (Complete™; manufactured by Boeringer Mannheim). The whole was homogenized by using a POLYTRON, and ultracentrifuged. The pellet was suspended in 50 mmol/L Tris-HCl (pH7.4) containing 1 mmol/L EDTA, 100 mmol/L NaCl, 0.1% BSA, and Complete™ to obtain a membrane fraction.
After [^3H]-2MeSADP (manufactured by Moravek Biochemical) was added to 20 μg of the membrane fraction as a final concentration of 0.25 to 50 nmol/L, and was incubated in 250 μL of 50 mmol/L Tris-HCl (pH7.4) containing 1 mmol/L EDTA, 100 mmol/L NaCl, 0.1% BSA, and Complete™ at room temperature for 1 hour, the whole was collected on a glass filter by using a cell harvester. A microscintillator was added to the glass filter, and then a total amount of binding to the membrane fraction was measured by using a liquid scintillation counter. Further, an amount of non-specific binding to the membrane fraction was measured by adding 2MeSADP (a final concentration=50 μmol/L) in the above assay.
A microscintillator was added to the glass filter, and then radioactivity was measured by using a liquid scintillation counter. Further, radioactivity was measured by not adding the compound and by adding 2MeSADP (a final concentration=10 μmol/L) in the above assay, as a total amount of binding and an amount of non-specific binding, respectively.

[7] = tested on: ADP-induced platelet aggregation of human PRP; assay: ADP-induced human platelet aggregation in platelet-rich plasma (aggregometer); assay type: cell-based; conditions: sodium citrate, ADP 20 to 200 μmol/L added as inducer, FIGS. 1 and 2
Description: Blood was collected from a healthy person (adult) by using 1/10 volume of sodium citrate, and then platelet-rich plasma(PRP) was prepared in accordance with a method of De Marco et al. (J. Clin. Invest., 77, 1272-1277, 1986). The PRP was used after preparing it to 3×10^8 cells/mL by using an automatic blood cell counter (MEK6258; Nihon Kohden Corporation). As an inducer of aggregation, ADP which is a product manufactured by MC Medical Corporation was used.
The platelet aggregation was measured by using an aggregometer (MCM Hema Tracer 212; MC Medical Corpration). […] Changes of a transmitted light were recorded for 10 minutes, and then an aggregation inhibition (%) was calculated from the maximum aggregation rate.
The data for 2MeSAMP (FIG. 1) are represented by the “average” of the experiment results obtained by using two volunteers. […] The inhibitory strength was dependent on the concentration of ADP as an inducer.

Row | SMILES | EC50 [1] [nM] | changes in the amount of cAMP produced by the forskolin stimulus [2] | EC50 [3] [nM] | EC50 [4] [nM] | change of the intracellular Ca2+ concentration [5] | IC50 [6] [nM] | IC50 ([4]; 1 μmol/L forskolin and 10 nmol/L 2MeSADP, read-out: IC50, inhibitory effect on the suppression by 2MeSADP in the amount of cAMP produced by the forskolin stimulus) [nM] | inhibition of ADP-induced platelet aggregation [7]
1 | CSc1nc(N)c2ncn([C@@H]3O[C@H](COP(=O)(O)OP(=O)(O)O)[C@@H](O)[C@H]3O)c2n1 [2MeSADP, 2-methylthio-ADP] | 0.07 | no changes | 5.4 | 0.08 | not observed | – | – | –
2 | CSc1nc(N)c2ncn([C@@H]3O[C@H](COP(=O)(O)O)[C@@H](O)[C@H]3O)c2n1 [2MeSAMP, 2-methylthio-adenosine monophosphate] | – | – | – | – | – | 4900 | 5000 | inhibited the ADP-induced platelet aggregation concentration-dependently
3 | Nc1ncnc2c1ncn2[C@@H]1O[C@H](COP(=O)(O)OP(=O)(O)O)[C@@H](O)[C@H]1O [ADP, adenosine 5′-diphosphate] | 35 | no changes | 220 | 42 | not observed | – | – | –
4 | CSCCNc1nc(SCCC(F)(F)F)nc2c1ncn2[C@@H]1O[C@H](COP(=O)(O)OP(=O)(O)C(Cl)(Cl)P(=O)(O)O)[C@@H](O)[C@H]1O [AR-C69931MX, N6-[2-methylthioethyl]-2-[3,3,3-trifluoropropylthio]-5′-ade nylic acid, monoanhydride with dichloromethylenebiphosphonic acid] | – | – | – | – | – | – | – | inhibited the ADP-induced platelet aggregation concentration-dependently
